# Laboratory results as given in article PMC2615555 (Virology, 2008).
# Peptide text beside a SMILES is read from it.
# Key:
# Experiment in all cases: biochemical
# Format in all cases: binding, BALB/c mouse
# H2-L^d = H2-L^d (Mus musculus, UniProt P01897)
# H2-D^d = H2-D^d (Mus musculus, UniProt P01900)
# H2-K^d = H2-K^d (Mus musculus, UniProt P01902)
# Sequence of H2-K^d (P01902 22-368): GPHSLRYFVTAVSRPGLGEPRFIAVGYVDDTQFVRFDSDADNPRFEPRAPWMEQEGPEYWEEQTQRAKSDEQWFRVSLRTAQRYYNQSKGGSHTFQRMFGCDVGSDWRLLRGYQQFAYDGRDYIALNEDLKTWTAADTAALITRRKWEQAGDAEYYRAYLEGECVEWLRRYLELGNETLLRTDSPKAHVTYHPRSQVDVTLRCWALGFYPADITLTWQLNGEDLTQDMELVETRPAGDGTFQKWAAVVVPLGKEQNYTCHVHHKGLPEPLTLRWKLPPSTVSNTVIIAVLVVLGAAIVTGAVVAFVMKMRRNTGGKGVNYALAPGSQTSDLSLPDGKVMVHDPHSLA
# Sequence of H2-K^d (P61769 21-119 partner): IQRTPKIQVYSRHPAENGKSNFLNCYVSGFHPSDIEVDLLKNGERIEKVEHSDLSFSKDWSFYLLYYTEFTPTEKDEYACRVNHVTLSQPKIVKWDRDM
# Sequence of H2-L^d (P01897 25-362): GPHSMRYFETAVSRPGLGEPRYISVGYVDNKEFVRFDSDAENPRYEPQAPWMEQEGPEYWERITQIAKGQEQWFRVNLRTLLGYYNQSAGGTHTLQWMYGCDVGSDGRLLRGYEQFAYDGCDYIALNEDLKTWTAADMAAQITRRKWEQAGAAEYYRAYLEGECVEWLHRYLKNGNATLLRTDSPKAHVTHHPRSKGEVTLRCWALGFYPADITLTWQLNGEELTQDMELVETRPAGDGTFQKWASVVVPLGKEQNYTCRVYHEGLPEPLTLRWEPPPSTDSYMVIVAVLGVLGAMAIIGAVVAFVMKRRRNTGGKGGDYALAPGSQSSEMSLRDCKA
# Sequence of H2-L^d (P61769 21-119 partner): as the sequence (P61769 21-119 partner) above
# Sequence of H2-D^d (P01900 25-365): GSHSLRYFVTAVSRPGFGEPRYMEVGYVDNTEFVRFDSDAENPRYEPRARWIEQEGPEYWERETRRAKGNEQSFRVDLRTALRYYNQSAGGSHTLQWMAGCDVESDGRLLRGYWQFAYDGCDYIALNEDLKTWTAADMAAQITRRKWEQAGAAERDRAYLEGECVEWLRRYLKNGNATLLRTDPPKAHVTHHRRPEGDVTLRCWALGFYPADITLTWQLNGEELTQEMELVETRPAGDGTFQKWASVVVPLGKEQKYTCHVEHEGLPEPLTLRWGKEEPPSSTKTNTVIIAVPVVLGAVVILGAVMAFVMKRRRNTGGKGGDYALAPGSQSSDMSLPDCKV
# Sequence of H2-D^d (P61769 21-119 partner): as the sequence (P61769 21-119 partner) above
smiles,measurement,setting,value
CC[C@H](C)[C@H](N)C(=O)N[C@H](C(=O)N[C@@H](C)C(=O)N[C@@H](CC(=O)O)C(=O)N[C@@H](CC(=O)O)C(=O)N[C@@H](CC(C)C)C(=O)N[C@H](C(=O)N[C@@H](C)C(=O)N[C@@H](C)C(=O)O)[C@@H](C)O)C(C)C [E335–343] (H-IVADDLTAA-OH),IC50,H2-L^d,38 µM
same,IC50,H2-D^d,> 70 µM
same,IC50,H2-K^d,> 70 µM
